Key:
[1] = system: 4′-Azidocytidine^res replicon; test: Anti-HCV assay, 4′-azidocytidine resistant replicon; details: for EC50: Hepatitis C virus, read-out: EC50, 4′-Azidocytidine^res; for fold resistance, 4′-Azidocytidine^res: versus wild-type replicon
HuH6 replicons = test: Anti-HCV replicon assay in HuH6 cells; details: Hepatitis C virus, HuH-6, read-out: Anti-HCV activity EC50, HuH6
Cytostatic assay = format: cell-based; details: human, HCV replicon-containing cells (Huh 5-2, HuH6 or Huh 9-13)
2′-C-MeCyt^res replicon = test: Anti-HCV assay, 2′-C-MeCyt resistant replicon; details: for EC50: Hepatitis C virus, read-out: EC50, 2′-C-MeCyt^res; for fold resistance, 2′-C-MeCyt^res: versus wild-type replicon
[2] = system: J6/JFH chimeric HCV reporter virus (J6/JFH-Rluc2a-FLAG); test: Antiviral assay with HCVcc virus in Huh-Lunet cells; format: cell-based, HCV genotype 2a; details: for EC50: Hepatitis C virus, 72 h, read-out: Anti-HCV activity EC50, J6/JFH
[3] = system: influenza A virus (H1N1 and H3N2); test: Antiviral assay, influenza A virus; format: cell-based; details: data not shown
[4] = system: vaccinia virus (poxviridae); test: Antiviral assay, vaccinia virus; format: cell-based; details: data not shown
BILN-2061^res replicon = test: Anti-HCV assay, BILN-2061 resistant replicon; details: for EC50: Hepatitis C virus, read-out: EC50, BILN-2061^res; for fold resistance, BILN-2061^res: versus wild-type replicon
[5] = system: HIV-2 (ROD, retroviridae); test: Antiviral assay, HIV-2; format: cell-based; details: data not shown
[6] = system: influenza B virus (orthomyxoviridae); test: Antiviral assay, influenza B virus; format: cell-based; details: data not shown
[7] = system: HCV subgenomic 1b replicon; test: Anti-HCV subgenomic replicon assay; format: cell-based
[8] = Stability in basic and acidic solutions; format: physicochemical
[9] = system: VX-950^res and BILN-2061^res replicon; test: Anti-HCV assay, VX-950 and BILN-2061 double resistant replicon; details: for fold resistance, VX-950^res and BILN-2061^res: versus wild-type replicon; for EC50: Hepatitis C virus, read-out: EC50, VX-950^res and BILN-2061^res
[10] = system: HCV replicon in Huh 9-13 cells; test: HCV replicon clearance-rebound assay; format: cell-based; details: for clearance of replicon, drug alone: 20 × EC50, Huh 9-13; for drug resistant replicon in cells surviving rebound conditions: after treatment, addition of G418, data not shown; for clearance of Huh 9-13 cells from their replicon, drug alone: five times EC50, 3 passages
[11] = system: feline coronavirus (coronaviridae); test: Antiviral assay, feline coronavirus; format: cell-based; details: data not shown
reovirus-1 (reoviridae) = test: Antiviral assay, reovirus; format: cell-based; details: data not shown
[12] = system: sindbis virus (alphaviridae); test: Antiviral assay, sindbis virus; format: cell-based; details: data not shown
[13] = NADPH-dependent metabolic stability in rat hepatic microsomes; format: in vitro ADME
[14] = system: bovine viral diarrhea virus (BVDV, flaviviridae); test: Antiviral assay with BVDV; format: cell-based
[15] = NADPH-dependent metabolic stability in dog hepatic microsomes; format: in vitro ADME
[16] = system: herpes simplex virus-2 (G strain, herpesviridae); test: Antiviral assay, herpes simplex virus-2; format: cell-based; details: data not shown
[17] = system: respiratory syncytial virus (paramyxoviridae); test: Antiviral assay, respiratory syncytial virus; format: cell-based; details: data not shown
[18] = system: HuH6 replicon-containing cells; test: Drug combinations in HuH6 cells; format: cell-based, HCV; details: checkerboard
[19] = system: vesicular stomatitis virus (rhabdoviridae); format: cell-based
[20] = system: herpes simplex virus-1 (KOS strain, TK^− KOS ACV^r); test: Antiviral assay, herpes simplex virus-1; format: cell-based; details: data not shown
[21] = system: Punta Toro virus (bunyaviridae); test: Antiviral assay, Punta Toro virus; format: cell-based; details: data not shown
GSK-4^res replicon = test: Anti-HCV assay, GSK-4 resistant replicon; details: for EC50: Hepatitis C virus, read-out: EC50, GSK-4^res; for fold resistance, GSK-4^res: versus wild-type replicon
[22] = system: coxsackie virus B4 (picornaviridae); test: Antiviral assay, coxsackie virus; format: cell-based; details: data not shown
[23] = system: para-influenza-3 virus (paramyxoviridae); test: Antiviral assay, para-influenza virus; format: cell-based; details: data not shown
HIV-1 (IIIB) = test: Antiviral assay, HIV-1; format: cell-based; details: data not shown
[24] = NADPH-dependent metabolic stability in human hepatic microsomes; format: in vitro ADME
YFV-17D (flaviviridae) = format: cell-based, yellow fever virus
HCV = details: cited from earlier work
[25] = 300 nM, Huh 9-13, data not shown

## [N-]=[N+]=N[C@]1(CO)O[C@@H](n2ccc(N)nc2=O)[C@H](O)[C@@H]1O [4′-Azidocytidine, 4′-azidocytidine]
[1]
  EC50: ≥ 16000 nM
  fold resistance, 4′-Azidocytidine^res: (⩾5.5)
HuH6 replicons
  EC50: 7400 ± 3700 nM
Cytostatic assay
  CC50: > 33000 nM
2′-C-MeCyt^res replicon
  EC50: 1200 ± 430 nM
  fold resistance, 2′-C-MeCyt^res: (0.41)

## CC(C)(C)NC(=O)N[C@H](C(=O)N1C[C@H]2[C@@H]([C@H]1C(=O)NC(CC1CCC1)C(=O)C(N)=O)C2(C)C)C(C)(C)C (stereo partly drawn) [SCH 503034, (1R,5S)-N-[3-amino-1-(cyclobutylmethyl)-2,3-dioxopropyl]-3-[2(S)-[[[(1,1-dimethylethyl)amino]carbonyl]amino]-3,3-dimethyl-1-oxobutyl]-6,6-dimethyl-3-azabicyclo[3.1.0]hexan-2(S)-carboxamide]
[2]
  EC50: 340 nM
Cytostatic assay
  CC50: ≥ 7400 nM

## NC(=O)c1ncn([C@@H]2O[C@H](CO)[C@@H](O)[C@H]2O)n1 [Ribavirin]
HuH6 replicons
  EC50: 28000 ± 16000 nM
Cytostatic assay
  CC50: > 33000 nM

## Fc1cccc(-c2nc3ccn(Cc4cc(-c5ccc(Cl)cc5)no4)cc-3n2)c1F [GS-327073, 5-[[3-(4-chlorophenyl)-5-isoxazolyl]methyl]-2-(2,3-difluorophenyl)-5H-imidazo[4,5-c]pyridine]
[3]
  activity against influenza virus A: inactive
[4]
  activity against vaccinia virus: inactive
[1]
  activity against 4′-azidocytidine resistant replicons: retained wild-type activity
  EC50: 7.2 ± 0.8 nM
  fold resistance, 4′-Azidocytidine^res: (3.6)
BILN-2061^res replicon
  activity against BILN-2061 resistant replicons: retained wild-type activity
  EC50: 9 ± 5 nM
  fold resistance, BILN-2061^res: (4.5)
[5]
  activity against human immunodeficiency virus 2: inactive
[6]
  activity against influenza virus B: inactive
[7]; CC50/EC50
  selectivity indices: ≥ 340
[7]; Hepatitis C virus, GETYPE1, read-out: mean EC50 values, HCV (genotype 1) subgenomic replicon replication
  EC50: 2 to 50 nM
[8]; pH 2.2
  stability in acidic solution: remained stable
[8]; pH 7.3
  stability in basic solution: remained stable
[9]
  activity against BILN-2061/VX-950 double resistant replicons: retained wild-type activity
  fold resistance, VX-950^res and BILN-2061^res: (2.0)
[9]; [25]
  fate of cells containing VX-950/BILN-2061^res replicon under G418 pressure: died following only one passage
[10]
  clearance of replicon, drug alone: failed to achieve clearance
  drug resistant replicon in cells surviving rebound conditions: did not contain drug resistant replicon
  clearance of Huh 9-13 cells from their replicon, drug alone: did not achieve complete clearance
[10]; Huh 9-13
  clearance of replicon, combination GS-327073 (5 × EC50) and VX-950 (5 × EC50): clearance of Huh 9-13 cells from their replicon following one passage
  passages until clearance of replicon RNA, GS-327073 (20 × EC50) with 2′-C-MeCyt (20 × EC50): 2 passages
[11]
  activity against feline coronavirus: inactive
reovirus-1 (reoviridae)
  activity against reovirus: inactive
[12]
  activity against sindbis virus: inactive
[13]; rat hepatic microsomes, NADPH-dependent
  microsomal half-time: 96 min
[13]; rat microsomes
  predicted hepatic clearance: 10.5 mL/min/kg
[14]
  cross-resistance with BPIP in anti-BVDV assay: cross-resistant
[14]; compared to compound 1
  fold less potent against BVDV than compound 1: about 10 fold
[15]; dog hepatic microsomes, NADPH-dependent
  microsomal half-time: 88 min
[15]; dog microsomes
  predicted hepatic clearance: 6 mL/min/kg
[16]
  activity against herpes simplex virus 2: inactive
[17]
  activity against respiratory syncitial virus: inactive
[18]
  combined antiviral activity with 2′-C-MeCyt: additive antiviral activity
  combined antiviral activity with IFNα 2b: additive antiviral activity
  combined antiviral activity with VX-950: additive antiviral activity
  combined antiviral activity with low concentrations of IFNα 2b: slight synergistic effect
  combined antiviral activity with ribavirin: additive antiviral activity
[2]
  EC50: 330 ± 140 nM
[2]; versus 1b replicon
  fold higher EC50 for HCV genotype 2a virus than for 1b replicon: 100 fold
[19]
  activity against vesicular stomatitis virus: inactive
HuH6 replicons
  EC50: 50 ± 20 nM
Cytostatic assay
  CC50: ≥ 17000 nM
[20]
  activity against herpes simplex virus 1: inactive
[21]
  activity against Punta Toro virus: inactive
GSK-4^res replicon
  activity against GSK-4 resistant replicons: retained wild-type activity
  EC50: 11 ± 1 nM
  fold resistance, GSK-4^res: (5.5)
[22]
  activity against coxsackie virus: inactive
2′-C-MeCyt^res replicon
  activity against 2′-C-MeCyt resistant replicons: retained wild-type activity
  EC50: 8 ± 6 nM
  fold resistance, 2′-C-MeCyt^res: (4.0)
2′-C-MeCyt^res replicon; [25]
  fate of cells containing 2′-C-MeCyt^res replicon under G418 pressure: died following only one passage
[23]
  activity against para-influenza virus: inactive
HIV-1 (IIIB)
  activity against human immunodeficiency virus 1: inactive
[24]; human hepatic microsomes, NADPH-dependent
  microsomal half-time: 236 min
[24]; human microsomes
  predicted hepatic clearance: 2.5 mL/min/kg
YFV-17D (flaviviridae)
  activity against yellow fever virus (17D): inactive

## CC1CCC(C(=O)N(c2cc(-c3ccccc3)sc2C(=O)O)C2CCC(O)CC2)CC1 (centres unmarked) [VCH-759]
HCV; HCV-infected patients
  tolerability in early clinical studies: generally well-tolerated
HCV; after 10 days of treatment in HCV-infected patients
  decrease in HCV RNA: 2.5 log10

## C[C@@]1(O)[C@H](O)[C@@H](CO)O[C@H]1n1ccc(N)nc1=O [2′-C-MeCyt, 2′-C-Methylcytidine]
[1]
  EC50: 3400 ± 1100 nM
  fold resistance, 4′-Azidocytidine^res: (7.9)
BILN-2061^res replicon
  EC50: 910 ± 1100 nM
  fold resistance, BILN-2061^res: (2.1)
[9]
  EC50: 1000 ± 700 nM
  fold resistance, VX-950^res and BILN-2061^res: (2.3)
[10]
  clearance of replicon, drug alone: failed to achieve clearance
  drug resistant replicon in cells surviving rebound conditions: did not contain drug resistant replicon
[2]
  EC50: 100 ± 20 nM
HuH6 replicons
  EC50: 1020 ± 440 nM
Cytostatic assay
  CC50: ≥ 26000 nM
2′-C-MeCyt^res replicon
  EC50: ≥ 30000 nM
  fold resistance, 2′-C-MeCyt^res: ⩾81

## CCC[C@H](NC(=O)[C@@H]1[C@H]2CCC[C@H]2CN1C(=O)[C@@H](NC(=O)[C@@H](NC(=O)c1cnccn1)C1CCCCC1)C(C)(C)C)C(=O)C(=O)NC1CC1 [VX-950]
[1]
  EC50: 690 ± 150 nM
  fold resistance, 4′-Azidocytidine^res: (1.2)
BILN-2061^res replicon
  EC50: 310 ± 50 nM
  fold resistance, BILN-2061^res: (0.53)
[9]
  EC50: 14000 ± 1400 nM
  fold resistance, VX-950^res and BILN-2061^res: (24)
[10]
  clearance of Huh 9-13 cells from their replicon, drug alone: did not achieve complete clearance
[2]
  EC50: 290 ± 110 nM
HuH6 replicons
  EC50: 1400 ± 490 nM
Cytostatic assay
  CC50: ≥ 24000 nM
2′-C-MeCyt^res replicon
  EC50: 1000 ± 30 nM
  fold resistance, 2′-C-MeCyt^res: (1.7)

## COc1ccc2c(O[C@@H]3C[C@H]4C(=O)N[C@]5(C(=O)O)C[C@H]5/C=C\CCCCC[C@H](NC(=O)OC5CCCC5)C(=O)N4C3)cc(-c3csc(NC(C)C)n3)nc2c1 [BILN-2061]
[1]
  EC50: 14 ± 8 nM
  fold resistance, 4′-Azidocytidine^res: (0.93)
BILN-2061^res replicon
  EC50: 1300 ± 470 nM
  fold resistance, BILN-2061^res: (130)
[9]
  EC50: 800 ± 80 nM
  fold resistance, VX-950^res and BILN-2061^res: (80)
HuH6 replicons
  EC50: 4 ± 2 nM
Cytostatic assay
  CC50: ≥ 22000 nM
2′-C-MeCyt^res replicon
  EC50: 40 ± 30 nM
  fold resistance, 2′-C-MeCyt^res: (4.0)

## CNC(=O)c1c(-c2ccc(F)cc2)oc2cc(N(CCO)S(C)(=O)=O)c(C3CC3)cc12 [HCV-796]
[2]
  EC50: < 100 nM
HuH6 replicons
  EC50: 10 ± 3 nM
Cytostatic assay
  CC50: > 33000 nM
GSK-4^res replicon
  EC50: 60 ± 30 nM
  fold resistance, GSK-4^res: (0.75)
